Patent US20080027001A1, “NOGO RECEPTOR FUNCTIONAL MOTIFS, PEPTIDE MIMETICS, AND MUTATED FUNCTIONAL MOTIFS RELATED THERETO, AND METHODS OF USING THE SAME” (priority 2006, published 2008)
Values joined by “and” are separate entries in the source; they are usually repeats but may differ in a detail not shown here. Equal entries are not always repeated. “Also recorded” adds a separate entry of the source. Bridges are numbered along the chain shown (N, C = ends).

What was measured:
[1] = system: cerebellar neurons; experiment: Neurite outgrowth assay, inhibition by soluble MAG-Fc; type: cell-based, rat; conditions: for antagonism of MAG-mediated inhibition of axonal growth / effect on MAG-Fc-suppressed neurite outgrowth: peptide 100 μg/ml; for antagonism of MAG-mediated inhibition of axonal growth: MAG-Fc 20 μg/ml (FIG. 6B); for efficacy of peptide relative to NRL2b over a range of concentrations / antagonism of inhibitory activity of MAG-Fc: MAG-Fc 20 μg/ml; for efficacy of peptide relative to NRL2b over a range of concentrations: FIG. 6C, 6D, position 2 effect at 25-50 μg/ml; for effect on MAG-Fc-suppressed neurite outgrowth: MAG-Fc 25 μg/ml (FIG. 5A); for peptide concentration with maximal effects on neurite outgrowth / peptide concentration with significant effects on neurite outgrowth: MAG-Fc 20 μg/ml (FIG. 6A); for antagonism of inhibitory activity of MAG-Fc: peptide 50 μg/ml (60 μM)
Description: (§1) Cerebellar neurons isolated from postnatal day ⅔ rat pups were cultured over monolayers of 3T3 cells (Doherty et al. (1991) Neuron 6(2):247-58) essentially as previously described (Williams et al. (1994) Neuron 13(3):583-94). Monolayers were established by seeding ˜80,000 cells into individual chambers of an eight-chamber tissue culture slide coated with poly-L-lysine and fibronectin. The cell lines, and monolayers, were maintained in Dulbecco's modified Eagle's medium supplemented with 10% fetal calf serum (FCS). Cocultures were established by removing the media from the monolayers and seeding ˜6000 dissociated cerebellar neurons into each well in SATO medium (modified from Doherty et al. (1990) Neuron 5(2):209-19; Dulbecco's modified Eagle's medium supplemented with 2% FBS, 33% bovine albumin, 0.62 μg/ml progesterone, 161 μg/ml putrescine, 4 μg/ml L-thyroxine, 0.387 μg/ml selenium, and 3.37 μg/ml tri-iodo-thyronine (components from Sigma-Aldrich, St. Louis, Mo.)). Monolayers were established for 24 hours prior to addition of the neurons and the cultures were maintained for ˜23-27 hr. Following careful fixation with 4% paraformaldehyde, the neurons were stained with a GAP-43 antibody, and the mean length of the longest neurite per cell was measured for ˜120-150 neurons, again as previously described (Williams et al. (1994) supra). For neurite outgrowth on substrate-bound MAG, 96-well plates were coated with a thin layer of nitrocellulose (Bio-Rad, Hercules, Calif.) before incubating with 1 μg/ml of MAG(d1-5) (a chimeric construct containing domains 1-5 of the extracellular portion of MAG) at 4° C. overnight. Wells were subsequently coated with 17 μg/ml of poly-D-lysine (Sigma, St. Louis, Mo.), followed by incubation in Dulbecco's modified Eagle's medium containing 10% FCS. Cerebellar granule neurons were dissociated and seeded at a density of 10^4 cells per well. Cells were cultured for 18-20 h before being fixed with 4% paraformaldehyde and stained with a neuronal-specific anti-III-tubulin antibody, Tuj 1 (Covance, Emeryville, Calif.). The average of total neurite lengths from each neuron was measured automatically by the MetaXpress Neurite Outgrowth module (Molecular Devices, Sunnyvale, Calif.) from at least 200 neurons per well, in triplicate wells per experiment. Results were repeated independently more than three times.
(§2) Synthetic peptides were all obtained from a commercial supplier (Multiple Peptide Systems, San Diego, Calif.). All peptides were purified to the highest grade by reverse-phase HPLC and obtained at the highest level of purity (>97%). With all peptides, there was no indication of higher molecular weight species. Where peptide sequences are underlined, this denotes a peptide that has been cyclized via a disulfide bond between the given cysteine residues. All peptides were acetylated (e.g., denoted with “N-Ac-”) and amide blocked (e.g., denoted with “—NH2”). Recombinant MAG-Fc chimera was obtained from R&D Systems (Minneapolis, Minn.) and used at final concentrations ranging from 5-25 μg/ml. The monoclonal antibody to GT1b (clone GMR5) was obtained from Seikagaku America (Falmouth, Mass.) and was used at a final concentration of 20 μg/ml. All reagents were diluted into the coculture media and, in general, added to the cultures just prior to the plating of the neurons. GT1b and GM1 were obtained as gifts from Dr. Gino Toffano (Libero, Italy) and University of Milan, and asialo-GM1 was obtained from Sigma (St. Louis, Mo.). The recombinant NgR1(310)-fc and MAG(d1-5) chimeras were expressed and purified in-house. Pharmacological reagents were obtained from Calbiochem (La Jolla, Calif.) and/or Sigma. For reagents used in cell-surface NgR binding assays, please see Examples 1.5 and 1.7. For reagents used in the cell surface p75NTR-NgR-AP binding assay, please see Example 1.13.
(§3) In contrast, a soluble MAG-Fc chimera inhibits neurite outgrowth in a manner that depends upon both ganglioside and NgR function. […]

[2] = molecular target: T1, NgR1(310)-fc (Homo sapiens, UniProt Q9BZR6); experiment: Analytical ultracentrifugation (sedimentation velocity), wild type receptor; type: binding; conditions: ganglioside 0 to 48 μM (FIG. 3A-C)
T1 construct: made in house; host or cells: mammalian expression vector (pSMED2)
T1 sequence (Q9BZR6 with tags, fused parts or gaps limits assumed): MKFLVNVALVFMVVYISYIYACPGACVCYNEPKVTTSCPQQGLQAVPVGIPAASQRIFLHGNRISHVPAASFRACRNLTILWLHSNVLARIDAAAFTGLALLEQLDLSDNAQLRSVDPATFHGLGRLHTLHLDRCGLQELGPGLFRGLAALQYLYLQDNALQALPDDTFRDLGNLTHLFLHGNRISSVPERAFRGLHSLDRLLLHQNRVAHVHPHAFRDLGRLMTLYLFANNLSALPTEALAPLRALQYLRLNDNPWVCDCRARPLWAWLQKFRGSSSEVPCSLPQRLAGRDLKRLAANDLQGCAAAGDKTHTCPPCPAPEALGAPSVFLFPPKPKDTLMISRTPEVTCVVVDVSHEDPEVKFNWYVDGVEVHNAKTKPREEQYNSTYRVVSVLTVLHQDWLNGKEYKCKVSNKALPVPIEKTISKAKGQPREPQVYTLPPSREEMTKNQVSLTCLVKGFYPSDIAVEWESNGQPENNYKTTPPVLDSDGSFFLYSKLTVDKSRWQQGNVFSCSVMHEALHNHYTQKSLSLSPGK
Source text: Human Nogo Receptor 1 (NgR1)(310)-fc point mutants (FRG-1 (R151E); FRG-2 (R279E); FRG-3 (R199E), and FRG-4 (R151E/R279E/R199E)) were constructed by Genewiz (North Brunswick, N.J.) using their site-directed mutagenesis technology. The template used to construct all the described mutants was wild type human NgR1(310)-fc (SEQ ID NO:59), which was generated by fusing a nucleotide sequence corresponding to the first 310 amino acid of Human Nogo Receptor 1 to a human Fc fragment in a mammalian expression vector (the sequence of wild type NgR1(310)-fc and the expression vector is set forth in SEQ ID NO:60 and a schematic of the expression vector is shown in FIG. 11). […]
Sedimentation velocity experiments were performed on a Beckman XLI/XLA analytical ultracentrifuge. […] Scans were recorded at 20° C. with a rotor speed of 35,000 rpm, and the signal was detected at 230 nm with a spacing of 0.006 in the continuous mode. Sedimentation profiles were analyzed by the program Sedfit (Schuck (2000) Biophys. J. 78:1606-19) to obtain the sedimentation coefficient distributions. The solvent density (1.006) and partial specific volume (0.72) were calculated using the program Sednterp (Laue et al. (1992) Analytical Ultracentrifugation in Biochemistry and Polymer Science (Harding, S. E., Towe, A. J. and Horton, J. C., eds.) pp. 90-125, Royal Society of Chemistry, Cambridge, U.K). […]

[3] = system: cerebellar neurons; experiment: Neurite outgrowth assay, control media (basal outgrowth); type: cell-based, rat; conditions: for effect on basal neurite outgrowth: peptide 100 μg/ml, without MAG-Fc
Description: as §1, §2, §3

[4] = system: cerebellar neurons; experiment: Neurite outgrowth assay, inhibition by GT1b antibody; type: cell-based, rat; conditions: peptide 100 μg/ml; antibody tested at up to 40 μg/ml
Description: Cerebellar neurons isolated from postnatal day ⅔ rat pups were cultured over monolayers of 3T3 cells (Doherty et al. (1991) Neuron 6(2):247-58) essentially as previously described (Williams et al. (1994) Neuron 13(3):583-94). Monolayers were established by seeding ˜80,000 cells into individual chambers of an eight-chamber tissue culture slide coated with poly-L-lysine and fibronectin. The cell lines, and monolayers, were maintained in Dulbecco's modified Eagle's medium supplemented with 10% fetal calf serum (FCS). […] Following careful fixation with 4% paraformaldehyde, the neurons were stained with a GAP-43 antibody, and the mean length of the longest neurite per cell was measured for ˜120-150 neurons, again as previously described (Williams et al. (1994) supra). […] The average of total neurite lengths from each neuron was measured automatically by the MetaXpress Neurite Outgrowth module (Molecular Devices, Sunnyvale, Calif.) from at least 200 neurons per well, in triplicate wells per experiment. […]

[5] = without MAG-Fc (data not shown)

N-Ac-CQKFAGC-NH2 (disulfide 1-7 (inferred))
antagonism of MAG-mediated inhibition of axonal growth [1]: ineffective

asialo-GM1
interaction with NgR1(310)-fc (shift of sedimentation coefficient) [2]: did not interact; also recorded: No change in sedimentation coefficient

N-Ac-CQAFRGC-NH2 (disulfide 1-7 (inferred))
efficacy of peptide relative to NRL2b over a range of concentrations [1]: no obvious effect on the efficacy of the peptide
antagonism of MAG-mediated inhibition of axonal growth [1]: as effective as NRL2b

N-Ac-CQKFRAC-NH2 (disulfide 1-7 (inferred))
antagonism of MAG-mediated inhibition of axonal growth [1]: ineffective

N-Ac-CAGRDLKRC-NH2 (disulfide 1-9 (inferred)) [NRL4]
effect on MAG-Fc-suppressed neurite outgrowth [1]: no effect
effect on basal neurite outgrowth [3]: no effect

N-Ac-CSLPQRLAC-NH2 (disulfide 1-9 (inferred)) [NRL3]
effect on MAG-Fc-suppressed neurite outgrowth [1]: no effect
effect on basal neurite outgrowth [3]: no effect

N-Ac-CKFRGSC-NH2 (disulfide 1-7 (inferred)) [NRL2a]
peptide concentration with maximal effects on neurite outgrowth [1]: 50 μg/ml and 60 μM
peptide concentration with significant effects on neurite outgrowth [1]: 25 μg/ml and 30 μM
antagonism of inhibitory activity of MAG-Fc [1]: effectively antagonized
effect on neurite outgrowth in control media [3, 5]: no effect

N-Ac-CLQKFRGSSC-NH2 (disulfide 1-10 (inferred)) [NRL2]
antagonism of GT1b antibody inhibition of neurite outgrowth [4]: fully inhibited the response; also recorded: failed to inhibit neurite outgrowth
peptide concentration at which response reaches plateau ([1]; MAG-Fc 25 μg/ml (FIG. 5B)): ~45 µM
peptide concentration with near maximal inhibitory activity ([1]; MAG-Fc present): ~45 µM
effect on MAG-Fc-suppressed neurite outgrowth [1]: failed to substantially inhibit neurite outgrowth
effect on basal neurite outgrowth [3]: no effect
effect on neurite outgrowth in control media ([3]; tested at up to 200 μg/ml): no significant effect

N-Ac-CQKARGC-NH2 (disulfide 1-7 (inferred))
efficacy of peptide relative to NRL2b over a range of concentrations [1]: reduced efficacy by about two-fold
antagonism of MAG-mediated inhibition of axonal growth [1]: as effective as NRL2b

QKFRG (listed as Homo sapiens)
antagonism of MAG-mediated inhibition of axonal growth [1]: did not antagonize

N-Ac-CYNEPKVTC-NH2 (disulfide 1-9 (inferred)) [NRL1]
effect on MAG-Fc-suppressed neurite outgrowth [1]: no effect
effect on basal neurite outgrowth [3]: no effect

N-Ac-CQKFRGC-NH2 (disulfide 1-7 (inferred)) [NRL2b]
peptide concentration with maximal effects on neurite outgrowth [1]: 50 μg/ml and 60 μM
peptide concentration with significant effects on neurite outgrowth [1]: 25 μg/ml and 30 μM
antagonism of inhibitory activity of MAG-Fc [1]: effectively antagonized
effect on neurite outgrowth in control media [3, 5]: no effect
